Data as given in PubChem BioAssay AID1745844 (Carcinogenic Potency Database (CPDB), 2022).
Active and inactive are the calls of the source. How the calls were made is not given here.

System: rodent lifetime carcinogenesis bioassay, tumor incidence TD50
Experiment: chronic cancer bioassays in animals – CPDB, compiled studies (AID 1745844)

CCOC(N)=O
TD50 (hamster, strain Syrian Golden, females, in drinking water, site: adrenal gland, lesion: cortical carcinoma, dosed 90 weeks, study length 90 weeks): 349 mg/kg/day
TD50 (hamster, strain Syrian Golden, females, in drinking water, site: adrenal gland, lesion: several types, types named in the paper, dosed 90 weeks, study length 90 weeks): 318 mg/kg/day
TD50 (hamster, strain Syrian Golden, females, in drinking water, site: cecum, lesion: adenomatous polyp, dosed 90 weeks, study length 90 weeks): 294 mg/kg/day
TD50 (hamster, strain Syrian Golden, females, in drinking water, site: dermis, lesion: melanocytoma, dosed 90 weeks, study length 90 weeks): 74.4 mg/kg/day
TD50 (hamster, strain Syrian Golden, females, in drinking water, site: forestomach, lesion: carcinoma, dosed 90 weeks, study length 90 weeks): 374 mg/kg/day
TD50 (hamster, strain Syrian Golden, females, in drinking water, site: forestomach, lesion: papilloma, dosed 55 weeks, study length 55 weeks): 102 mg/kg/day
TD50 (hamster, strain Syrian Golden, females, in drinking water, site: forestomach, lesion: papilloma, dosed 90 weeks, study length 90 weeks): 44.5 mg/kg/day
TD50 (hamster, strain Syrian Golden, females, in drinking water, site: gall bladder, lesion: papilloma, dosed 90 weeks, study length 90 weeks): 682 mg/kg/day
TD50 (hamster, strain Syrian Golden, females, in drinking water, site: lung, lesion: adenoma, dosed 90 weeks, study length 90 weeks): 1360 mg/kg/day
TD50 (hamster, strain Syrian Golden, females, in drinking water, site: ovary, lesion: carcinoma, dosed 90 weeks, study length 90 weeks): 682 mg/kg/day
TD50 (hamster, strain Syrian Golden, females, in drinking water, site: skin, lesion: melanotic tumor, dosed 55 weeks, study length 55 weeks): 496 mg/kg/day
TD50 (hamster, strain Syrian Golden, females, in drinking water, site: thyroid gland, lesion: several types, types named in the paper, dosed 90 weeks, study length 90 weeks): 538 mg/kg/day
TD50 (hamster, strain Syrian Golden, females, in drinking water, site: vagina, lesion: carcinoma, dosed 90 weeks, study length 90 weeks): 314 mg/kg/day
TD50 (hamster, strain Syrian Golden, males, in drinking water, site: adrenal gland, lesion: cortical adenoma, dosed 103 weeks, study length 103 weeks): 564 mg/kg/day
TD50 (hamster, strain Syrian Golden, males, in drinking water, site: cecum, lesion: adenomatous polyp, dosed 103 weeks, study length 103 weeks): 765 mg/kg/day
TD50 (hamster, strain Syrian Golden, males, in drinking water, site: dermis, lesion: melanocytoma, dosed 103 weeks, study length 103 weeks): 109 mg/kg/day
TD50 (hamster, strain Syrian Golden, males, in drinking water, site: forestomach, lesion: carcinoma, dosed 103 weeks, study length 103 weeks): 135 mg/kg/day
TD50 (hamster, strain Syrian Golden, males, in drinking water, site: forestomach, lesion: papilloma, dosed 76 weeks, study length 76 weeks): 95.8 mg/kg/day
TD50 (hamster, strain Syrian Golden, males, in drinking water, site: forestomach, lesion: papilloma, dosed 103 weeks, study length 103 weeks): 64.2 mg/kg/day
TD50 (hamster, strain Syrian Golden, males, in drinking water, site: liver, lesion: several types, types named in the paper, dosed 103 weeks, study length 103 weeks): 1280 mg/kg/day
TD50 (hamster, strain Syrian Golden, males, in drinking water, site: lung, lesion: adenoma, dosed 103 weeks, study length 103 weeks): 927 mg/kg/day
TD50 (hamster, strain Syrian Golden, males, in drinking water, site: skin, lesion: melanotic tumor, dosed 76 weeks, study length 76 weeks): 74.2 mg/kg/day
TD50 (monkey, strain Cynomolgus [Macaca fascicularis], both sexes, in feed, site: any site (literature study), lesion: benign tumor, dosed 258 weeks, study length 1208 weeks): 128 mg/kg/day
TD50 (monkey, strain Cynomolgus [Macaca fascicularis], both sexes, in feed, site: any site (literature study), lesion: malignant tumor, dosed 258 weeks, study length 1208 weeks): 21.5 mg/kg/day
TD50 (monkey, strain Cynomolgus [Macaca fascicularis], both sexes, in feed, site: any site (literature study), lesion: several types, types named in the paper, dosed 258 weeks, study length 1208 weeks): 25.5 mg/kg/day
TD50 (monkey, strain Cynomolgus [Macaca fascicularis], both sexes, in feed, site: liver, lesion: hemangiosarcoma, dosed 258 weeks, study length 1208 weeks): 95 mg/kg/day
TD50 (monkey, strain Cynomolgus [Macaca fascicularis], both sexes, in feed, site: liver, lesion: hepatocellular adenoma, dosed 258 weeks, study length 1208 weeks): 31.7 mg/kg/day
TD50 (monkey, strain Cynomolgus [Macaca fascicularis], both sexes, in feed, site: lung, lesion: bronchogenic carcinoma, dosed 258 weeks, study length 1208 weeks): 31.7 mg/kg/day
TD50 (monkey, strain Cynomolgus [Macaca fascicularis], both sexes, in feed, site: pancreas, lesion: adenocarcinoma, dosed 258 weeks, study length 1208 weeks): 52.8 mg/kg/day
TD50 (monkey, strain Cynomolgus [Macaca fascicularis], both sexes, in feed, site: several sites, pooled by Berkeley, lesion: several types, pooled by Berkeley, dosed 258 weeks, study length 1208 weeks): 16.4 mg/kg/day
TD50 (monkey, strain Rhesus [Macaca mulatta], both sexes, in feed, site: adrenal gland, lesion: pheochromocytoma, dosed 258 weeks, study length 1281 weeks): 117 mg/kg/day
TD50 (monkey, strain Rhesus [Macaca mulatta], both sexes, in feed, site: any site (literature study), lesion: benign tumor, dosed 258 weeks, study length 1281 weeks): 75.9 mg/kg/day
TD50 (monkey, strain Rhesus [Macaca mulatta], both sexes, in feed, site: any site (literature study), lesion: malignant tumor, dosed 258 weeks, study length 1281 weeks): 52.9 mg/kg/day
TD50 (monkey, strain Rhesus [Macaca mulatta], both sexes, in feed, site: any site (literature study), lesion: several types, types named in the paper, dosed 258 weeks, study length 1281 weeks): 26.3 mg/kg/day
TD50 (monkey, strain Rhesus [Macaca mulatta], both sexes, in feed, site: cheek pouch, lesion: squamous-cell papilloma, dosed 258 weeks, study length 1281 weeks): 75.5 mg/kg/day
TD50 (monkey, strain Rhesus [Macaca mulatta], both sexes, in feed, site: jejunum, lesion: adenocarcinoma, dosed 258 weeks, study length 1281 weeks): 65.2 mg/kg/day
TD50 (monkey, strain Rhesus [Macaca mulatta], both sexes, in feed, site: liver, lesion: hemangiosarcoma, dosed 258 weeks, study length 1281 weeks): 143 mg/kg/day
TD50 (monkey, strain Rhesus [Macaca mulatta], both sexes, in feed, site: liver, lesion: hepatocellular carcinoma, dosed 258 weeks, study length 1281 weeks): 143 mg/kg/day
TD50 (monkey, strain Rhesus [Macaca mulatta], both sexes, in feed, site: several sites, pooled by Berkeley, lesion: several types, pooled by Berkeley, dosed 258 weeks, study length 1281 weeks): 44.8 mg/kg/day
TD50 (mouse, strain B6AKF1, females, oral dosing, site: Harderian gland, lesion: adenoma, dosed 73 weeks, study length 73 weeks): 59.7 mg/kg/day
TD50 (mouse, strain B6AKF1, females, oral dosing, site: all sites, lesion: angioma, dosed 73 weeks, study length 73 weeks): 31.7 mg/kg/day
TD50 (mouse, strain B6AKF1, females, oral dosing, site: any site (literature study), lesion: several types, types named in the paper, dosed 73 weeks, study length 73 weeks): 9.73 mg/kg/day
TD50 (mouse, strain B6AKF1, females, oral dosing, site: liver, lesion: hepatoma, dosed 73 weeks, study length 73 weeks): 89.9 mg/kg/day
TD50 (mouse, strain B6AKF1, females, oral dosing, site: lung, lesion: adenoma, dosed 73 weeks, study length 73 weeks): 29.3 mg/kg/day
TD50 (mouse, strain B6AKF1, females, oral dosing, site: lung, lesion: carcinoma, dosed 73 weeks, study length 73 weeks): 89.9 mg/kg/day
TD50 (mouse, strain B6AKF1, females, oral dosing, site: lung, lesion: several types, types named in the paper, dosed 73 weeks, study length 73 weeks): 12.5 mg/kg/day
TD50 (mouse, strain B6AKF1, males, oral dosing, site: Harderian gland, lesion: adenoma, dosed 72 weeks, study length 72 weeks): 35.8 mg/kg/day
TD50 (mouse, strain B6AKF1, males, oral dosing, site: all sites, lesion: reticulum-cell sarcoma, dosed 72 weeks, study length 72 weeks): 77.9 mg/kg/day
TD50 (mouse, strain B6AKF1, males, oral dosing, site: any site (literature study), lesion: several types, types named in the paper, dosed 72 weeks, study length 72 weeks): 11.2 mg/kg/day
TD50 (mouse, strain B6AKF1, males, oral dosing, site: liver, lesion: hepatoma, dosed 72 weeks, study length 72 weeks): 39 mg/kg/day
TD50 (mouse, strain B6AKF1, males, oral dosing, site: liver, lesion: several types, types named in the paper, dosed 72 weeks, study length 72 weeks): 26 mg/kg/day
TD50 (mouse, strain B6AKF1, males, oral dosing, site: lung, lesion: adenoma, dosed 72 weeks, study length 72 weeks): 27.8 mg/kg/day
TD50 (mouse, strain B6AKF1, males, oral dosing, site: lung, lesion: several types, types named in the paper, dosed 72 weeks, study length 72 weeks): 24.2 mg/kg/day
TD50 (mouse, strain B6C3F1, females, oral dosing, site: any site (literature study), lesion: several types, types named in the paper, dosed 68 weeks, study length 68 weeks): 13.7 mg/kg/day
TD50 (mouse, strain B6C3F1, females, oral dosing, site: liver, lesion: hepatoma, dosed 68 weeks, study length 68 weeks): 55.9 mg/kg/day
TD50 (mouse, strain B6C3F1, females, oral dosing, site: liver, lesion: several types, types named in the paper, dosed 68 weeks, study length 68 weeks): 32.4 mg/kg/day
TD50 (mouse, strain B6C3F1, females, oral dosing, site: lung, lesion: adenoma, dosed 68 weeks, study length 68 weeks): 97.4 mg/kg/day
TD50 (mouse, strain B6C3F1, females, oral dosing, site: lung, lesion: several types, types named in the paper, dosed 68 weeks, study length 68 weeks): 79 mg/kg/day
TD50 (mouse, strain B6C3F1, males, in drinking water, site: heart, lesion: hemangiosarcoma, dosed 65 weeks, study length 70 weeks): 417 mg/kg/day
TD50 (mouse, strain B6C3F1, males, in drinking water, site: liver, lesion: hemangioma, dosed 65 weeks, study length 70 weeks): 63.3 mg/kg/day
TD50 (mouse, strain B6C3F1, males, in drinking water, site: liver, lesion: hemangiosarcoma, dosed 65 weeks, study length 70 weeks): 122 mg/kg/day
TD50 (mouse, strain B6C3F1, males, in drinking water, site: liver, lesion: hepatocellular adenoma, dosed 65 weeks, study length 70 weeks): 38.2 mg/kg/day
TD50 (mouse, strain B6C3F1, males, in drinking water, site: lung, lesion: alveolar/bronchiolar adenoma, dosed 65 weeks, study length 70 weeks): 5.91 mg/kg/day
TD50 (mouse, strain B6C3F1, males, in drinking water, site: lung, lesion: alveolar/bronchiolar carcinoma, dosed 65 weeks, study length 70 weeks): 242 mg/kg/day
TD50 (mouse, strain B6C3F1, males, in drinking water, site: lung, lesion: several types, types named in the paper, dosed 65 weeks, study length 70 weeks): 5.91 mg/kg/day
TD50 (mouse, strain B6C3F1, males, oral dosing, site: any site (literature study), lesion: several types, types named in the paper, dosed 70 weeks, study length 70 weeks): 22.4 mg/kg/day
TD50 (mouse, strain B6C3F1, males, oral dosing, site: liver, lesion: hepatoma, dosed 70 weeks, study length 70 weeks): 81.7 mg/kg/day
TD50 (mouse, strain B6C3F1, males, oral dosing, site: liver, lesion: several types, types named in the paper, dosed 70 weeks, study length 70 weeks): 46 mg/kg/day
TD50 (mouse, strain B6C3F1, males, oral dosing, site: lung, lesion: adenoma, dosed 70 weeks, study length 70 weeks): 81.7 mg/kg/day
TD50 (mouse, strain B6C3F1, males, oral dosing, site: lung, lesion: several types, types named in the paper, dosed 70 weeks, study length 70 weeks): 65.9 mg/kg/day
TD50 (mouse, strain CF-1, females, in drinking water, site: any site (literature study), lesion: several types, types named in the paper, dosed 133 weeks, study length 133 weeks): 23.3 mg/kg/day
carcinogen call (mouse, strain CF-1, females, in drinking water, site: liver, lesion: hepatoma, dosed 133 weeks, study length 133 weeks): negative (inactive)
TD50 (mouse, strain CF-1, females, in drinking water, site: lung, lesion: one or several types, types not named, dosed 133 weeks, study length 133 weeks): 23.8 mg/kg/day
TD50 (mouse, strain CF-1, males, in drinking water, site: any site (literature study), lesion: several types, types named in the paper, dosed 125 weeks, study length 125 weeks): 12.1 mg/kg/day
carcinogen call (mouse, strain CF-1, males, in drinking water, site: liver, lesion: hepatoma, dosed 125 weeks, study length 125 weeks): negative (inactive)
TD50 (mouse, strain CF-1, males, in drinking water, site: lung, lesion: one or several types, types not named, dosed 125 weeks, study length 125 weeks): 13.2 mg/kg/day
TD50 (mouse, strain NMRI, both sexes, in drinking water, site: any site (literature study), lesion: benign tumor, dosed 101 weeks, study length 104 weeks): 0.434 mg/kg/day
TD50 (mouse, strain NMRI, both sexes, in drinking water, site: any site (literature study), lesion: malignant tumor, dosed 101 weeks, study length 104 weeks): 14.7 mg/kg/day
TD50 (mouse, strain Swiss, both sexes, in feed, site: lung, lesion: adenocarcinoma, dosed 116 weeks, study length 116 weeks): 5060 mg/kg/day
TD50 (mouse, strain Swiss, both sexes, in feed, site: lung, lesion: adenoma, dosed 116 weeks, study length 116 weeks): 36.1 mg/kg/day
TD50 (rat, strain Sprague-Dawley, both sexes, in drinking water, site: any site (literature study), lesion: benign tumor, dosed 97 weeks, study length 104 weeks): 91.2 mg/kg/day
TD50 (rat, strain Sprague-Dawley, both sexes, in drinking water, site: any site (literature study), lesion: malignant tumor, dosed 97 weeks, study length 104 weeks): 41.3 mg/kg/day
